Results from patent US8410309B2, “Phenoxy carboxylic acid compounds and compositions for delivering active agents” (Emisphere Technologies, Inc., priority 1999, dated 2013).
Values joined by “and” are separate entries in the source; they are usually repeats but may differ in a detail not shown here. Identical values can stand only once.

What was measured:
[1] = Insulin pulmonary delivery, serum insulin by ELISA, ratio to insulin-alone control; format: in vivo, Sprague-Dawley rats; conditions: rats
Description: Dosing compositions of delivery agent compound and human insulin in water were prepared. Typically, to 1.5 mg of delivery agent compound was added deionized water to bring the volume to 1.0 ml, and the solution was vortexed. […] The pH was adjusted to between about 7.0 to 8.5 with NaOH or HCl. […] The final delivery agent compound dose, insulin dose and volume dose amounts are listed below in Table 9.
The typical dosing and sampling protocols were as follows. […] A control group of five animals was dosed insulin alone. A tracheal instillator for rodents, equipped with light (available from Penn Century, Inc., Pittsburgh, Pa.) was filled with dosing solution and inserted down the throat until the needle went into the trachea (confirmed visually). The dosing solution was administered by pressing the plunger.
Blood samples from each animal were collected serially from the tail artery, typically at 5, 15, 30, 60 and 120 minutes after dosing. […] The ratio of the area under the curve (AUC) for the test group versus that of the control group is reported below. The ratio of the maximum serum insulin concentration (Cmax) for the test group versus that of the control group is also reported below.

[2] = Recombinant human growth hormone (rhGH) oral delivery, serum rhGH by immunoassay; conditions: oral gavage, rats, delivery agent compound 200 mg/kg, rhGH 3 mg/kg
Description: Oral gavage (PO) dosing solutions of delivery agent compound and rhGH in phosphate buffer were prepared by mixing. A solution of the delivery agent compound was made either with the sodium salt of the delivery agent compound or by converting the free acid to its sodium salt.
The typical dosing and sampling protocols were as follows. Male Sprague-Dawley rats weighing 200-250 g were fasted for 24 hours and administered ketamine (44 mg/kg) and chlorpromazine (1.5 mg/kg) 15 minutes prior to dosing and again as needed to maintain anesthesia. A dosing group of five animals was administered one of the dosing solutions. An 11 cm Rusch 8 French catheter was adapted to a 1 ml syringe with a pipette tip. The syringe was filled with dosing solution by drawing the solution through the catheter, which was then wiped dry. The catheter was placed down the esophagus leaving 1 cm of tubing past the incisors. The dosing solution was administered by pressing the syringe plunger.
Blood samples were collected serially from the tail artery typically at time=15, 30, 45, 60 and 90 minutes. The five samples from each time period were pooled (except for those samples for which standard deviation (SD) and standard error (SE) are reported). Serum rHGH concentrations were quantified by an rHGH immunoassay test kit (Kit # K1F4015 from Genzyme Corporation Inc., Cambridge, Mass.).

[3] = Insulin oral delivery, serum human insulin by ELISA; conditions: rats
Description: Oral dosing (PO) compositions of delivery agent compound and human zinc insulin (minimum 26 IU/mg available from Calbiochem—Novabiochem Corp, La Jolla, Calif.) were prepared in deionized water. […] The pH was adjusted to about 7 to 8.5 with NaOH or HCl. […] The final delivery agent compound dose, insulin dose and dose volume amounts are listed below in Table 8.
(§1) The typical dosing and sampling protocols were as follows.
Serum insulin levels were determined with an Insulin ELISA Test Kit (Kit # DSL-10-1600 from Diagnostic Systems Laboratories, Inc., Webster, Tex.), modifying the standard protocol in order to optimize the sensitivity and linear range of the standard curve for the volumes and concentrations of the samples used in the present protocol. […] The five values for each time point were averaged and the results plotted as serum insulin concentration versus time.

[4] = Salmon calcitonin (sCT) oral delivery, serum sCT by EIA; conditions: rats, delivery agent compound dose 150 mg/kg, sCT dose 30 μg/kg
[5] = Heparin oral/intracolonic delivery, clotting time by activated partial thromboplastin time (APTT); format: in vivo, Sprague-Dawley rats; conditions: rats, baseline about 20 seconds
Description: Oral gavage (PO) and/or intracolonic (IC) dosing solutions containing a delivery agent compound and heparin sodium USP were prepared in 25% aqueous propylene glycol. […] This dry mixture was dissolved in 25% v/v aqueous propylene glycol, vortexed, and placed in a sonicator (about 37° C.). The pH was adjusted to about 7 (6.5 to 8.5) with aqueous NaOH (2N). The dosing solution was sonicated to produce a clear solution. The final volume was adjusted to about 3.0 ml.
(§2) The typical dosing and sampling protocols were as follows. […] The dosing solution was expressed slowly into the colon by pressing the syringe plunger.
Citrated blood samples were collected by cardiac puncture following the administration of ketamine (88 mg/kg), typically at 0.25, 0.5, 1.0 and 1.5 hours after dosing. Heparin absorption was verified by an increase in clotting time measured by the activated partial thromboplastin time (APTT) according to the method of Henry, J. B., Clinical Diagnosis and Management by Laboratory Methods, Philadelphia, Pa., W.B. Saunders (1979). Previous studies indicated baseline values of about 20 seconds.

[6] = Low molecular weight heparin (LMWH) oral/intracolonic delivery, plasma LMWH by anti-Factor Xa assay; format: in vivo, Sprague-Dawley rats; conditions: IC, rats, LMWH 750 IU/kg, 1 ml/kg
Description: Oral dosing (PO) and/or intracolonic (IC) compositions containing a delivery agent compound and low molecular weight heparin (LMWH) were prepared in 25% aqueous propylene glycol. […] Typically, the delivery agent compound and LMWH (Parnaparin, 91 IU/mg average molecular weight about 5,000, available from Opocrin, Modena, Italy) (typically 90-105 IU/mg, average molecular weight about 5,000) were mixed by vortex as dry powders. This dry mixture was dissolved in 25% v/v aqueous propylene glycol, vortexed, and placed in a sonicator (37° C.) to produce a clear solution. The pH was adjusted to about 7 (6.5-8.5) with 2N aqueous NaOH. The dosing solution was sonicated to produce a clear solution. The final volume was adjusted to 3.0 ml.
as §2
Citrated blood samples were collected by cardiac puncture following the administration of ketamine (88 mg/kg), typically at 0.5, 1.0, 2.0, 3.0 and 4.0 hours after dosing. LMWH absorption was verified by an increase in plasma LMWH measured by the anti-Factor Xa assay CHROMOSTRATE™ Heparin anti-Xa assay (available from Organon Teknika Corporation, Durham, N.C.). […] The peak of these mean plasma LMWH concentrations is reported below in Table 5.

[7] = Interferon oral delivery, serum IFN by immunoassay; format: in vivo, Sprague-Dawley rats; conditions: rats, delivery agent compound 200 mg/kg, IFN 1 mg/kg, 1 ml/kg
Description: Dosing solutions of delivery agent compound and human interferon (IFN) were prepared in deionized water. […] This mixture was vortexed and placed in a sonicator (about 37° C.). The pH was adjusted to about 7.0 to 8.5 with aqueous NaOH. The mixture was vortexed to produce a uniform suspension or solution, also using sonication and heat if necessary.
as §1
Serum IFN concentrations were quantified using Cytoscreen Immunoassay Kit for human IFN-alpha (catalog # KHC4012 from Biosource International, Camarillo, Calif.). Previous studies indicated baseline values of about zero.

[8] = pulmonary, volume 0.4 ml/kg, delivery agent compound 0.03 mg/kg, insulin 0.3 mg/kg (so in the source)
[9] = delivery agent compound 100 mg/kg, insulin 3 mg/kg, 1 ml/kg
[10] = Table 9 pulmonary delivery, volume 1 ml/kg, delivery agent compound 3 mg/kg, insulin 100 mg/kg (so in the source)
[11] = IC (intracolonic), delivery agent compound 50 mg/kg, heparin 25 mg/kg, volume dose 1 ml
[12] = delivery agent compound 25 mg/kg
[13] = delivery agent compound 50 mg/kg
[14] = delivery agent compound 200 mg/kg, insulin 0.5 mg/kg, 1 ml/kg
[15] = delivery agent compound 100 mg/kg, insulin 3 mg/kg, 0.5 ml/kg

O=C(O)c1ccc(COc2ccccc2Cl)cc1 [Compound 78]
Cmax (serum insulin) [1, 8]: 80.56 ± 30.51 μU/ml
Mean Peak Serum [rhGH] ([2]; volume dose 1 ml): 0 ng/mL

O=C(O)C=Cc1ccccc1OCCCCCCCC(=O)O [Compound 25]
Mean Peak Serum [INS] ± SD [3, 9]: 47.2162 ± 31.43 μU/ml
Cmax (serum insulin) [1, 10]: 47.2162 μU/ml
Mean Peak Serum sCT (pg/ml ± SD) (SE) ([4]; dose volume 1 (ml)): 53 ± 77 pg/mL
Mean Peak Serum [rhGH] ([2]; volume dose 1 ml): 0 ng/mL

O=C(O)CCCCCCCOc1ccc(F)cc1F [Compound 71]
Cmax (serum insulin) [1, 8]: 57.82 ± 35.28 μU/ml
Mean Peak Serum sCT (pg/ml ± SD) (SE) ([4]; dose volume 2 (ml)): 302 ± 246 pg/mL
Mean Peak Serum [rhGH] ([2]; volume dose 3 ml): 5.94 ng/mL

Nc1cc(Cl)ccc1OCCCCCCCC(=O)O [Compound 22]
Mean Peak APTT ± SD [5, 11]: 287.9 ± 120.1 s
Mean Peak Plasma LMWH Concentration ± SD ([6]; delivery agent compound 10 mg/kg): 0.396 ± 0.153 IU/ml
Mean Peak Plasma LMWH Concentration ± SD [6, 12]: 1.496 ± 0.153 IU/ml
Mean Peak Plasma LMWH Concentration ± SD [6, 13]: 1.842 ± 0.205 IU/ml
Mean Peak Serum [INS] ± SD [3, 14]: 24.16 ± 28.11 μU/ml
Mean Peak Serum [rhGH] ([2]; volume dose 1 ml): 0 ng/mL

O=C(O)CCCCCOc1cccc(O)c1 [Compound 45]
Mean Peak Serum [INS] ± SD [3, 14]: 70.32 ± 149.1 μU/ml
Mean Ratio of AUC for insulin + compound versus AUC for insulin alone [1, 8]: 1.01
Mean Peak Serum sCT (pg/ml ± SD) (SE) ([4]; dose volume 1 (ml), 150 mg/kg): 125 ± 187 pg/mL and 172 ± 158 pg/mL

CC(=O)c1ccccc1OCCCCC(=O)O [Compound 10]
Mean Peak APTT ± SD [5, 11]: 81.8 ± 7 s and 63.5 s
Mean Peak Plasma LMWH Concentration ± SD [6, 13]: 0.088 ± 0.121 IU/ml
Mean Peak Serum [INS] ± SD [3, 9]: 63.5884 ± 129.23 μU/ml
Cmax (serum insulin) [1, 10]: 63.5884 μU/ml
Mean Peak Serum [rhGH] ([2]; volume dose 1 ml): 34.3 ng/mL

O=C(O)CCCCCOc1ccc(O)cc1 [Compound 49]
Mean Peak Serum [INS] ± SD [3, 15]: 335.7 ± 227.05 μU/ml
Mean Ratio of AUC for insulin + compound versus AUC for insulin alone [1, 8]: 0.54

O=C(O)c1ccc(COc2ccc(O)cc2)cc1 [Compound 67]
Mean Peak Serum [IFN] ± SD [7]: 3.4451 ± 4.5 ng/mL
Cmax (serum insulin) ([1]; pulmonary, volume 0.4 ml/kg, delivery agent compound 0.03 mg/kg, insulin 0.06 mg/kg (so in the source)): 82.23 ± 47.16 μU/ml and 70.85 ± 36.24 μU/ml
Cmax (serum insulin) ([1]; pulmonary, volume 0.4 ml/kg, delivery agent compound 0.03 mg/kg, insulin 0.15 mg/kg (so in the source)): 84.40 ± 15.06 μU/ml and 91.20 ± 37.30 μU/ml
Cmax (serum insulin) [1, 8]: 66.04 ± 47.42 μU/ml and 92.14 ± 36.17 μU/ml and 115.04 ± 68.23 μU/ml
Mean Peak Serum sCT (pg/ml ± SD) (SE) ([4]; dose volume 1 (ml), 150 mg/kg): 142 ± 142 pg/mL and 256 ± 158 pg/mL
Mean Peak Serum sCT (pg/ml ± SD) (SE) ([4]; dose volume 2 (ml)): 681 ± 419 pg/mL
Mean Peak Serum [rhGH] ([2]; volume dose 1 ml): 15 ng/mL and 14.7 ng/mL

O=C(O)CCCCCCOc1ccccc1O [Compound 6, (2-hydroxyphenyl)-7-oxyheptanoic acid]
Mean Peak APTT ± SD [5, 11]: 157.4 ± 33.7 s and 99.8 ± 50.6 s
Mean Peak APTT ± SD ([5]; PO (oral gavage), delivery agent compound 300 mg/kg, heparin 100 mg/kg, volume dose 3 ml): 193 ± 61.2 s
Mean Peak Plasma LMWH Concentration ± SD [6, 12]: 0.47 ± 0.17 IU/ml
Mean Peak Serum [IFN] ± SD [7]: 0.5696 ± 0.8 ng/mL
Mean Peak Serum [INS] ± SD [3, 14]: 129.5 ± 131.5 μU/ml

CC(=O)c1ccccc1OCc1ccc(C(=O)O)cc1 [Compound 1]
Mean Peak APTT ± SD [5, 11]: 130.84 ± 118.18 s and 231.34 s
Mean Peak Plasma LMWH Concentration ± SD [6, 12]: 1.022 ± 0.432 IU/ml
Mean Peak Plasma LMWH Concentration ± SD ([6]; delivery agent compound 50 mg/kg, 50 mg/kg): 1.734 ± 0.192 IU/ml and 1.038 ± 0.338 IU/ml
Mean Peak Serum [IFN] ± SD [7]: 17.357 ± 38 ng/mL
Mean Peak Serum [INS] ± SD [3, 9]: 74.237 ± 1144.49 μU/ml
Cmax (serum insulin) [1, 10]: 74.237 μU/ml
Mean Peak Serum sCT (pg/ml ± SD) (SE) ([4]; dose volume 1 (ml), 150 mg/kg): 317 ± 405 pg/mL and 398 ± 237 pg/mL and 410 ± 471 pg/mL

O=C(O)CCCCCCCOc1ccccc1C(=O)O [Compound 32]
Mean Peak APTT ± SD [5, 11]: 26.5 ± 2.3 s
Mean Peak Plasma LMWH Concentration ± SD [6, 13]: 0.07 ± 0.01 IU/ml
Mean Peak Serum [IFN] ± SD [7]: 0 ng/mL
Mean Peak Serum [INS] ± SD [3, 14]: 3.12 ± 2.26 μU/ml
Mean Peak Serum [INS] ± SD ([3]; delivery agent compound 200 mg/kg, insulin 3 mg/kg, 1 ml/kg): 6.38 ± 4.42 μU/ml
Mean Peak Serum sCT (pg/ml ± SD) (SE) ([4]; dose volume 1 (ml), 150 mg/kg): 175 ± 148 pg/mL and 103 ± 75 pg/mL and 187 ± 135 pg/mL
Mean Peak Serum [rhGH] ([2]; volume dose 1 ml): 0 ng/mL

O=C(O)CCCCCCCCCOc1cccc(O)c1 [Compound 44]
Mean Peak Serum [INS] ± SD [3, 15]: 97.49 ± 134.1 μU/ml
Mean Ratio of AUC for insulin + compound versus AUC for insulin alone [1, 8]: 0.76
Mean Peak Serum sCT (pg/ml ± SD) (SE) ([4]; dose volume 1 (ml)): 188 ± 184 pg/mL

O=C(O)CCCCCCCCCOc1ccc(O)cc1 [Compound 48]
Cmax (serum insulin) [1, 8]: 135.56 ± 80.96 μU/ml
Mean Ratio of AUC for insulin + compound versus AUC for insulin alone [1, 8]: 1.30
Mean Peak Serum sCT (pg/ml ± SD) (SE) ([4]; dose volume 3 (ml)): 95 ± 156 pg/mL
Mean Peak Serum sCT (pg/ml ± SD) (SE) ([4]; dose volume 4 (ml)): 35 ± 49 pg/mL

CCC(=O)c1ccc(OCCCCCCCC(=O)O)cc1 [Compound 63]
Mean Peak Serum [INS] ± SD [3, 9]: 7.843 ± 8.527 μU/ml
Cmax (serum insulin) [1, 10]: 7.843 μU/ml
